Read-outs that look alike come from different tables or passages of the source.
Assays:
Assay in all cases: Test B pre-/postemergence plant response
Format in all cases: in vivo
[1] = tested on: sunflower (common oilseed sunflower, Helianthus annuus); conditions: Preemergence
How it was run: (§1)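 Plants treated either at seeding (loam/sand soil) or postemergence at 2 to 18 cm height, using a surfactant-containing non-phytotoxic solvent formulation. Evaluation was visual after 13 to 15 days, 0 to 100 scale relative to controls.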

[2] = tested on: cocklebur (Xanthium strumarium); conditions: for pest or weed control at 31 g/ha: 31 g ai/ha; for pest or weed control at 125 g/ha: 125 g ai/ha
How it was run: as §1

[3] = tested on: yellow nutsedge (Cyperus esculentus); conditions: for pest or weed control at 31 g/ha: 31 g ai/ha; for pest or weed control at 125 g/ha: 125 g ai/ha
How it was run: as §1

[4] = tested on: woolly cupgrass (Eriochloa villosa); conditions: for pest or weed control at 31 g/ha: 31 g ai/ha; for pest or weed control at 125 g/ha: 125 g ai/ha
How it was run: as §1

[5] = tested on: lambsquarters (Chenopodium album); conditions: for pest or weed control at 31 g/ha: 31 g ai/ha; for pest or weed control at 125 g/ha: 125 g ai/ha
How it was run: as §1

[6] = tested on: nightshade (eastern black nightshade, Solanum ptycanthum); conditions: Preemergence
How it was run: as §1

[7] = tested on: large crabgrass (Digitaria sanguinalis); conditions: for pest or weed control at 31 g/ha: 31 g ai/ha; for pest or weed control at 125 g/ha: 125 g ai/ha
How it was run: as §1

[8] = tested on: galium (catchweed bedstraw, Galium aparine); conditions: Preemergence
How it was run: as §1

wild oat (Avena fatua) = conditions: for pest or weed control at 31 g/ha: 31 g ai/ha; for pest or weed control at 125 g/ha: 125 g ai/ha
How it was run: as §1

[9] = tested on: Surinam grass (Brachiaria decumbens); conditions: for pest or weed control at 125 g/ha: 125 g ai/ha
How it was run: as §1

kochia (Kochia scoparia) = conditions: for pest or weed control at 31 g/ha: 31 g ai/ha; for pest or weed control at 125 g/ha: 125 g ai/ha
How it was run: as §1

[10] = 31 g ai/ha, scale 0 to 100 (0 no effect, 100 complete control)
[11] = 62 g ai/ha, scale 0 to 100, 0 no effect, 100 complete control
[12] = 125 g ai/ha, scale 0 to 100, 0 no effect, 100 complete control
[13] = 62 g ai/ha, postemergence, 0 is no effect, 100 is complete control, 13 to 15 days
[14] = Preemergence, 250 g ai/ha, 0 to 100 scale

SMILES: O=C1CCCC(O)=C1C(=O)c1cnc(-c2cccnc2)n(-c2ccccc2)c1=O [Compound 113, 5-[(2-hydroxy-6-oxo-1-cyclohexen-1-yl)carbonyl]-3-phenyl-2-(3-pyridinyl)-4(3H)-pyrimidone]
- Plant response rating, Sunflower [1, 10]: 75
- Plant response rating, Sunflower [1, 11]: 80
- Plant response rating, Sunflower [1, 12]: 90
- Sunflower plant response rating ([1]; 250 g ai/ha, 0 to 100 scale): 95
- Cocklebur plant response rating (0 to 100 scale) [2, 13]: 95
- Cocklebur plant response rating [2, 14]: 100
- pest or weed control at 31 g/ha ([2]; Xanthium strumarium, post-emergence, postemergence, scale 0 to 100, 0 is no effect, 100 is complete control, read-out: Plant response rating, Cocklebur): 95%
- pest or weed control at 125 g/ha ([2]; Xanthium strumarium, post-emergence, Postemergence, scale 0 to 100 (0 no effect, 100 complete control), read-out: Plant response rating, Cocklebur): 98%
- pest or weed control at 250 g/ha ([2]; Xanthium strumarium, post-emergence, Postemergence, 250 g ai/ha, scale 0 to 100 (0 no effect, 100 complete control), read-out: Plant response rating, Cocklebur): 98%
- pest or weed control at 31 g/ha ([2]; Xanthium strumarium, pre-emergence, Preemergence, scale 0 to 100 (0 no effect, 100 complete control), read-out: Plant response rating, Cocklebur): 45%
- pest or weed control at 62 g/ha ([2]; Xanthium strumarium, pre-emergence, Preemergence, 62 g ai/ha, scale 0 to 100, 0 no effect, 100 complete control, read-out: Plant response rating, Cocklebur): 75%
- pest or weed control at 125 g/ha ([2]; Xanthium strumarium, pre-emergence, Preemergence, scale 0 to 100, 0 no effect, 100 complete control, read-out: Plant response rating, Cocklebur): 90%
- Nutsedge, Yellow plant response rating (0 to 100 scale) [3, 13]: 75
- pest or weed control at 31 g/ha ([3]; Cyperus, post-emergence, postemergence, scale 0 to 100, 0 is no effect, 100 is complete control, read-out: Plant response rating, Nutsedge, Yellow): 65%
- pest or weed control at 125 g/ha ([3]; Cyperus, post-emergence, Postemergence, scale 0 to 100 (0 no effect, 100 complete control), read-out: Plant response rating, Nutsedge, Yellow): 75%
- pest or weed control at 250 g/ha ([3]; Cyperus, post-emergence, Postemergence, 250 g ai/ha, scale 0 to 100 (0 no effect, 100 complete control), read-out: Plant response rating, Nutsedge, Yellow): 75%
- pest or weed control at 31 g/ha ([3]; Cyperus, pre-emergence, Preemergence, scale 0 to 100 (0 no effect, 100 complete control), read-out: Plant response rating, Nutsedge, Yellow): 65%
- pest or weed control at 62 g/ha ([3]; Cyperus, pre-emergence, Preemergence, 62 g ai/ha, scale 0 to 100 (0 no effect, 100 complete control), read-out: Plant response rating, Nutsedge, Yellow): 80%
- pest or weed control at 125 g/ha ([3]; Cyperus, pre-emergence, Preemergence, scale 0 to 100, 0 no effect, 100 complete control, read-out: Plant response rating, Nutsedge, Yellow): 90%
- Nutsedge, Yellow plant response rating [3, 14]: 90
- Cupgrass, Woolly plant response rating (0 to 100 scale) [4, 13]: 85
- pest or weed control at 31 g/ha ([4]; Eriochloa villosa, post-emergence, postemergence, scale 0 to 100, 0 is no effect, 100 is complete control, read-out: Plant response rating, Cupgrass, Woolly): 85%
- pest or weed control at 125 g/ha ([4]; Eriochloa villosa, post-emergence, Postemergence, scale 0 to 100 (0 no effect, 100 complete control), read-out: Plant response rating, Cupgrass, Woolly): 95%
- pest or weed control at 250 g/ha ([4]; Eriochloa villosa, post-emergence, Postemergence, 250 g ai/ha, scale 0 to 100 (0 no effect, 100 complete control), read-out: Plant response rating, Cupgrass, Woolly): 95%
- pest or weed control at 31 g/ha ([4]; Eriochloa villosa, pre-emergence, Preemergence, scale 0 to 100 (0 no effect, 100 complete control), read-out: Plant response rating, Cupgrass, Woolly): 5%
- pest or weed control at 62 g/ha ([4]; Eriochloa villosa, pre-emergence, Preemergence, 62 g ai/ha, scale 0 to 100, 0 no effect, 100 complete control, read-out: Plant response rating, Cupgrass, Woolly): 50%
- pest or weed control at 125 g/ha ([4]; Eriochloa villosa, pre-emergence, Preemergence, scale 0 to 100, 0 no effect, 100 complete control, read-out: Plant response rating, Cupgrass, Woolly): 85%
- Cupgrass, Woolly plant response rating [4, 14]: 95
- Lambsquarters plant response rating (0 to 100 scale) [5, 13]: 98
- pest or weed control at 31 g/ha ([5]; Chenopodium album, post-emergence, postemergence, scale 0 to 100, 0 is no effect, 100 is complete control, read-out: Plant response rating, Lambsquarters): 95%
- pest or weed control at 125 g/ha ([5]; Chenopodium album, post-emergence, Postemergence, scale 0 to 100 (0 no effect, 100 complete control), read-out: Plant response rating, Lambsquarters): 98%
- pest or weed control at 250 g/ha ([5]; Chenopodium album, post-emergence, Postemergence, 250 g ai/ha, scale 0 to 100 (0 no effect, 100 complete control), read-out: Plant response rating, Lambsquarters): 98%
- pest or weed control at 31 g/ha ([5]; Chenopodium album, pre-emergence, Preemergence, scale 0 to 100 (0 no effect, 100 complete control), read-out: Plant response rating, Lambsquarters): 98%
- pest or weed control at 62 g/ha ([5]; Chenopodium album, pre-emergence, Preemergence, 62 g ai/ha, scale 0 to 100, 0 no effect, 100 complete control, read-out: Plant response rating, Lambsquarters): 100%
- pest or weed control at 125 g/ha ([5]; Chenopodium album, pre-emergence, Preemergence, scale 0 to 100, 0 no effect, 100 complete control, read-out: Plant response rating, Lambsquarters): 100%
- Lambsquarters plant response rating [5, 14]: 100
- Plant response rating, Nightshade [6, 10]: 98
- Plant response rating, Nightshade [6, 11]: 98
- Plant response rating, Nightshade [6, 12]: 100
- Nightshade plant response rating ([6]; 250 g ai/ha, 0 to 100 scale): 100
- Crabgrass, Large plant response rating (0 to 100 scale) [7, 13]: 90
- pest or weed control at 31 g/ha ([7]; Digitaria sanguinalis, post-emergence, postemergence, scale 0 to 100, 0 is no effect, 100 is complete control, read-out: Plant response rating, Crabgrass, Large): 85%
- pest or weed control at 125 g/ha ([7]; Digitaria sanguinalis, post-emergence, Postemergence, scale 0 to 100 (0 no effect, 100 complete control), read-out: Plant response rating, Crabgrass, Large): 95%
- pest or weed control at 250 g/ha ([7]; Digitaria sanguinalis, post-emergence, Postemergence, 250 g ai/ha, scale 0 to 100 (0 no effect, 100 complete control), read-out: Plant response rating, Crabgrass, Large): 95%
- pest or weed control at 31 g/ha ([7]; Digitaria sanguinalis, pre-emergence, Preemergence, scale 0 to 100 (0 no effect, 100 complete control), read-out: Plant response rating, Crabgrass, Large): 70%
- pest or weed control at 62 g/ha ([7]; Digitaria sanguinalis, pre-emergence, Preemergence, 62 g ai/ha, scale 0 to 100, 0 no effect, 100 complete control, read-out: Plant response rating, Crabgrass, Large): 98%
- pest or weed control at 125 g/ha ([7]; Digitaria sanguinalis, pre-emergence, Preemergence, scale 0 to 100, 0 no effect, 100 complete control, read-out: Plant response rating, Crabgrass, Large): 100%
- Crabgrass, Large plant response rating [7, 14]: 100
- Plant response rating, Galium [8, 10]: 50
- Plant response rating, Galium [8, 11]: 70
- Plant response rating, Galium [8, 12]: 85
- Galium plant response rating ([8]; 250 g ai/ha, 0 to 100 scale): 95
- Oat, Wild plant response rating (0 to 100 scale) (wild oat (Avena fatua); [13]): 40
- pest or weed control at 31 g/ha (wild oat (Avena fatua); Avena fatua, post-emergence, postemergence, scale 0 to 100, 0 is no effect, 100 is complete control, read-out: Plant response rating, Oat, Wild): 20%
- pest or weed control at 125 g/ha (wild oat (Avena fatua); Avena fatua, post-emergence, Postemergence, scale 0 to 100 (0 no effect, 100 complete control), read-out: Plant response rating, Oat, Wild): 45%
- pest or weed control at 250 g/ha (wild oat (Avena fatua); Avena fatua, post-emergence, Postemergence, 250 g ai/ha, scale 0 to 100 (0 no effect, 100 complete control), read-out: Plant response rating, Oat, Wild): 85%
- pest or weed control at 31 g/ha (wild oat (Avena fatua); Avena fatua, pre-emergence, Preemergence, scale 0 to 100 (0 no effect, 100 complete control), read-out: Plant response rating, Oat, Wild): 0%
- pest or weed control at 62 g/ha (wild oat (Avena fatua); Avena fatua, pre-emergence, Preemergence, 62 g ai/ha, scale 0 to 100 (0 no effect, 100 complete control), read-out: Plant response rating, Oat, Wild): 5%
- pest or weed control at 125 g/ha (wild oat (Avena fatua); Avena fatua, pre-emergence, Preemergence, scale 0 to 100, 0 no effect, 100 complete control, read-out: Plant response rating, Oat, Wild): 20%
- Oat, Wild plant response rating (wild oat (Avena fatua); [14]): 40
- Surinam Grass plant response rating (0 to 100 scale) [9, 13]: 85
- Surinam Grass plant response rating [9, 14]: 98
- pest or weed control at 125 g/ha ([9]; Urochloa decumbens, post-emergence, Postemergence, scale 0 to 100 (0 no effect, 100 complete control), read-out: Plant response rating, Surinam Grass): 90%
- pest or weed control at 250 g/ha ([9]; Urochloa decumbens, post-emergence, Postemergence, 250 g ai/ha, scale 0 to 100 (0 no effect, 100 complete control), read-out: Plant response rating, Surinam Grass): 90%
- pest or weed control at 31 g/ha ([9]; Urochloa decumbens, pre-emergence, Preemergence, 31 g ai/ha, scale 0 to 100 (0 no effect, 100 complete control), read-out: Plant response rating, Surinam Grass): 0%
- pest or weed control at 62 g/ha ([9]; Urochloa decumbens, pre-emergence, Preemergence, 62 g ai/ha, scale 0 to 100 (0 no effect, 100 complete control), read-out: Plant response rating, Surinam Grass): 80%
- pest or weed control at 125 g/ha ([9]; Urochloa decumbens, pre-emergence, Preemergence, scale 0 to 100, 0 no effect, 100 complete control, read-out: Plant response rating, Surinam Grass): 95%
- Kochia plant response rating (0 to 100 scale) (kochia (Kochia scoparia); [13]): 100
- pest or weed control at 31 g/ha (kochia (Kochia scoparia); Bassia scoparia, post-emergence, postemergence, scale 0 to 100, 0 is no effect, 100 is complete control, read-out: Plant response rating, Kochia): 98%
- pest or weed control at 125 g/ha (kochia (Kochia scoparia); Bassia scoparia, post-emergence, Postemergence, scale 0 to 100 (0 no effect, 100 complete control), read-out: Plant response rating, Kochia): 100%
- pest or weed control at 250 g/ha (kochia (Kochia scoparia); Bassia scoparia, post-emergence, Postemergence, 250 g ai/ha, scale 0 to 100 (0 no effect, 100 complete control), read-out: Plant response rating, Kochia): 100%
- pest or weed control at 31 g/ha (kochia (Kochia scoparia); Bassia scoparia, pre-emergence, Preemergence, scale 0 to 100 (0 no effect, 100 complete control), read-out: Plant response rating, Kochia): 80%
- pest or weed control at 62 g/ha (kochia (Kochia scoparia); Bassia scoparia, pre-emergence, Preemergence, 62 g ai/ha, scale 0 to 100 (0 no effect, 100 complete control), read-out: Plant response rating, Kochia): 80%
- pest or weed control at 125 g/ha (kochia (Kochia scoparia); Bassia scoparia, pre-emergence, Preemergence, scale 0 to 100, 0 no effect, 100 complete control, read-out: Plant response rating, Kochia): 85%
- Kochia plant response rating (kochia (Kochia scoparia); [14]): 90
